Assay results published in the supplement of paper PMC10307832.

Compound: O=C(NCCCNc1nc(Nc2cccc(NC(=O)N3CCCC3)c2)ncc1I)c1cccs1 [BX 795] + CC1(C)CCC(c2ccc(Cl)cc2)=C(CN2CCN(c3ccc(C(=O)NS(=O)(=O)c4ccc(N[C@H](CCN5CCOCC5)CSc5ccccc5)c(S(=O)(=O)C(F)(F)F)c4)cc3)CC2)C1 [Navitoclax] (partner 0.5 µM)
Assay: relative viability (nuclei count vs DMSO), 5 days (fraction); higher = more cells survive
Outline: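 For relative viability, nuclei counts in treated wells were divided by those in vehicle wells. Lung cancer cell lines had been pin-tool dosed in 1536-well plates the day after seeding and cultured for 5 days, then fixed and stained in one step (final 0.05% Triton X-100, 1% formaldehyde, 1 ug/ml Hoechst) and imaged at 4×. Doses were one drug alone or a fixed anchor-drug dose plus five library-drug doses (not always all listed) in √10 steps, and values are duplicate-plate medians.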

Cell Line	relative viability (first compound 0.04 µM)	relative viability (first compound 0.1265 µM)	relative viability (first compound 0.4 µM)	relative viability (first compound 1.265 µM)
NCI-H1355	0.974	0.937	1.09	0.626
HCC-827	1.1	0.974	1.05	0.908
NCI-H1915	0.824	0.782	0.766	0.691
NCI-H460	1.1	1.25	1.16	0.973
SW 1573	0.886	1.13	1.12	0.837
NCI-H23	0.983	0.916	0.672	0.355
BEN	0.0771	0.0586	0.0606	0.0858
COR-L 105	0.795	0.583	0.652	0.39
NCI-H2085	1.12	1.17	1.27	1.01
NCI-H2228	0.894	0.811	0.857	0.486
ChaGo-K-1	0.817	0.919	0.933	0.982
UMC-11	0.321	0.347	0.326	0.17
A-427	0.97	1.02	1.01	0.788
SK-LU-1	0.702	0.915	0.553	0.724
NCI-H1666	1.12	1.31	1.14	0.717
NCI-H2087	0.901	1	1.25	0.801
RERF-LC-KJ	0.759	0.93	0.771	0.881
IA-LM	0.755	0.725	0.952	0.52
LOU-NH91	0.686	0.735	0.594	0.686
NCI-H1975	1.19	1.24	1.16	0.985
NCI-H1793	0.575	0.362	0.39	0.272
PC-14	0.976	0.988	1.08	0.795

Cell Line	relative viability (first compound 0.04 µM)	relative viability (first compound 0.1265 µM)	relative viability (first compound 0.4 µM)	relative viability (first compound 1.265 µM)
CAL-12T	1.08	1.23	1.25	0.497
COR-L23	1.15	1.02	1.02	0.524
EKVX	0.703	1.02	0.851	0.896
NCI-H3122	1.03	1	1.04	1.05
HARA	1.13	1.13	1.24	1.13
LC-2-ad	0.503	0.448	0.467	0.213
NCI-H1395	1.23	1.06	0.531	0.837
NCI-H647		1.08	1.07	1.01
HCC-15	0.751	0.7	0.756	0.53
NCI-H1993	0.868	0.857	0.846	0.614
NCI-H727	0.45	0.535	0.471	0.37
HCC-44	0.872	1.05	1.02	0.708
NCI-H1944	1.14	1.11	1.07	0.953
NCI-H2023	0.933	1.08	0.36	0.645
NCI-H2126	0.795	0.826	0.965	0.787
NCI-H838	1.05	1.1	1.02	0.519
201T	1.18	1.21	1.24	1.21
NCI-H1734	0.882	0.945	0.828	0.618
SK-MES-1	1.26	1.32	1.23	0.886
NCI-H1651	1	1.13	1.04	0.932
LCLC-97TM1	0.398	0.45	0.529	0.432
H3255	0.663	0.484	0.694	0.527

Cell Line	relative viability (first compound 0.04 µM)	relative viability (first compound 0.1265 µM)	relative viability (first compound 0.4 µM)	relative viability (first compound 1.265 µM)
NCI-H322M	1.41	1.19	1.35	1.25
HCC-366	0.865	0.977	0.74	0.823
NCI-H2170	0.674	0.62	0.659	0.53
NCI-H441	0.867	0.429	1.03	0.564
LK-2	0.873	0.876	0.787	0.608
LXF-289	0.971	0.926	0.975	0.628
HOP-62	1.09	1.24	1.21	1.07
NCI-H520	0.736	1.12	0.95	0.535
NCI-H1650	1.17	1.12	1.41	0.649
EMC-BAC-2	1.18	1.24	1.24	0.906
NCI-H2009	1.23	1.1	1.19	0.853
NCI-H2347	1.02	0.743	1.05	0.76
LU99A	1.03	0.755	0.821	0.498
HCC-78	0.857	0.926	0.792	0.718
PC-3 [JPC-3]	0.864	0.838	0.905	0.75
NCI-H1437	1.08	1.06	1.15	0.94
NCI-H1755	1.07	0.978	1.04	0.671
NCI-H596	1.04	1.05	1.16	0.945
EPLC-272H	1.14		1.27	1.12
NCI-H1792	0.624	0.556	0.708	0.568
NCI-H2405	0.827	0.848	0.588	0.7
